Several values for one entry are separate records, joined by “and”; a condition that tells them apart may be missing. Identical values can stand only once. Marks after values point to notes of the source that are not given here. Some results are limits rather than exact numbers.

These results are taken from patent US20190037899A1, “Intramolecular Trans-Sialidase” (THE INSTITUTE OF FOOD RESEARCH, priority 2016, published 2019).

Series [1] concerns the target T1, RgNanH (Mediterraneibacter gnavus, UniProt A7B557).
T1 sequence (A7B557 26-723): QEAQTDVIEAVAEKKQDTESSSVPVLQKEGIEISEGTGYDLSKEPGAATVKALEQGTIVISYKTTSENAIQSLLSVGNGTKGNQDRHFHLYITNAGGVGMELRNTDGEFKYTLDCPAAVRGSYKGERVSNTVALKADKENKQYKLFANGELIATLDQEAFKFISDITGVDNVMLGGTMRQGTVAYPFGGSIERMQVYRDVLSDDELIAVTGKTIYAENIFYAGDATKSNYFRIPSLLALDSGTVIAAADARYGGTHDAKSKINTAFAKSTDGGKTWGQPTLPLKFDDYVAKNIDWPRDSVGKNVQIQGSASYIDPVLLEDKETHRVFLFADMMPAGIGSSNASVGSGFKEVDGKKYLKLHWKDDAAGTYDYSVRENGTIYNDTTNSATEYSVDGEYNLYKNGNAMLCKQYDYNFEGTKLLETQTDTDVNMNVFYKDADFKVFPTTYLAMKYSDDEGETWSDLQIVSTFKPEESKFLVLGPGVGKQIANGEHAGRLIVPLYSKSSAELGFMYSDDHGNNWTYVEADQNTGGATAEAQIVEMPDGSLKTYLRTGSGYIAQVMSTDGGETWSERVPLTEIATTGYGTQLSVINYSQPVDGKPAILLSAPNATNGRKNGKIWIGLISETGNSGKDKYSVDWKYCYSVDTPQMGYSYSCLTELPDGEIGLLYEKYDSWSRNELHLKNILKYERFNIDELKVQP
Put plainly: Inhibition of RgNanH activity against 4MU-Neu5Ac by neuraminidase inhibitors. Conditions: for Inhibition of RgNanH (in words): 4MU-Neu5Ac 0.51 mM, 1 nM enzyme, Neu5Ac 0-0.3 mM, Lac 0-1.5 mM.

In series [2] the test system is RgNanH. In words: Specificity of RgNanH against sialylated oligosaccharides (HPAEC-PAD). Format: biochemical, Ruminococcus gnavus ATCC 29149. More on the design: key to Activity, RgNanH: +: Activity was defined as disappearance of the substrate peak and appearance of a lower molecular weight peak which could correspond to the desialylated substrate. Conditions: for Activity, RgNanH: 1 mM substrate, 1 nM enzyme, 37° C., pH 6.5, overnight.

Series [3] concerns AkmNan0625 and AkmNan1835. Put plainly: Specificity of AkmNan0625 and AkmNan1835 against sialylated oligosaccharides (HPAEC-PAD). Format: biochemical, Akkermansia muciniphila. More on the design: key to Activity, AkmNan0625 and AkmNan1835: +: Activity was defined as disappearance of the substrate peak and appearance of a lower molecular weight peak which could correspond to the desialylated substrate. Conditions: for Activity, AkmNan0625 and AkmNan1835: 1 mM substrate, 1 nM enzyme, 37° C., pH 6.5, overnight. The text has this: All chemicals were obtained from Sigma (St. Louis, US) unless otherwise stated. The Akkermansia muciniphila sialidases, termed here AkmNan0625 and AkmNan1835, were obtained by His-Tag overexpression of their genes (Amuc_0625 and Amuc_1835, respectively (van Passel, M. W. et al. The genome of Akkermansia muciniphila, a dedicated intestinal mucin degrader, and its use in exploring intestinal metagenomes. Plos One 6, e16876 (2011)) in E. coli BL21(DE3) and subsequent purification to homogeneity by immobilised metal affinity chromatography (IMAC) as described below. The sialylated oligosaccharides and OC were obtained from Carbosynth (Berks, UK).

Series [4] deals with T2, Ruminococcus gnavus ATCC 29149 sialidase RgNanH (intramolecular trans-sialidase, IT-sialidase), wild type, full length excluding signal sequence residues 1-25, (Mediterraneibacter gnavus, UniProt A7B557).
T2 sequence (A7B557 26-723): T1 sequence (A7B557 26-723)
To be noted: 37° C., pH 6.5.

In series [5] the test system is RgNanH. Put plainly: Kinetic analysis of RgNanH with sialylated substrates. Conditions: 37° C., pH 6.5; for Ki: read-out: Ki (substrate inhibition).
Series [6] addresses T1, RgNanH. Conditions: 1 mg/ml glycoprotein, 37° C., pH 6.5, overnight.
Substrate in series [7]: CC(=O)N[C@H]1[C@H]([C@H](O)[C@H](O)CO)O[C@@](Oc2ccc3c(C)cc(=O)oc3c2)(C(=O)O)C[C@@H]1O
In words: purified protein, by the assay type. Conditions: other: 37° C., pH 6.5, * estimated value, ± standard error of the mean.

The mark [8] stands for this setting: * estimated value, ± standard error of the mean.

Turning to `CC(=O)N[C@H]1[C@H]([C@H](O)[C@H](O)CO)OC(O)(C(=O)O)C[C@@H]1O` (some centres unmarked) [Neu5Ac, N-Acetylneuraminic acid], on RgNanH [1], the “Inhibition of RgNanH (in words)” value is recorded as “not inhibited”.

In the case of `CC(=O)NC1C(O)CC(OC2C(O)C(O)OC(CO)C2O)(C(=O)O)OC1C(O)C(O)CO` (stereo not drawn) [3′ sialylgalactose, Neu5Ac-α-2-3-Gal], the “Activity, RgNanH” value with RgNanH [2] was “+”. Also, the “Activity, AkmNan0625 and AkmNan1835” value in series [3] was “+”.

Consider `OC[C@H]1O[C@@H](O[C@H]2[C@H](O)[C@@H](O)C(O)O[C@@H]2CO)[C@H](O)[C@@H](O)[C@H]1O` (some centres unmarked) [Lactose], for which the “Inhibition of RgNanH (in words)” value at RgNanH [1] is listed as “not inhibited”.

Regarding `CO[C@@H]1O[C@H](CO)[C@@H](O[C@@H]2O[C@H](CO)[C@H](O)[C@H](O[C@]3(C(=O)O)C[C@H](O)[C@@H](NC(C)=O)[C@H]([C@H](O)[C@H](O)CO)O3)[C@H]2O)[C@H](O[C@@H]2O[C@@H](C)[C@@H](O)[C@@H](O)[C@@H]2O)[C@H]1NC(C)=O` [3′ sialyl Lewis X methyl glycoside, Neu5Ac-α-2-3-Gal-β-1-4-[Fuc-a-1-3]-GlcNAc-β-OMe], in the series on RgNanH [2], the “Activity, RgNanH” value is “+”. Further, the “Activity, AkmNan0625 and AkmNan1835” value in series [3] is on record as “+”.

As for Neu5Ac-α-2-6-Gal-β1-4-Glc [6′SL], in the series with RgNanH [2], the “Enzymatic activity of RgNanH on substrate (in words)” value is reported as “no enzymatic activity”. Moreover, in series [3], the “Activity of AkmNan0625 and AkmNan1835 on substrate (in words)” value is “active”; the “Activity, AkmNan0625 and AkmNan1835” value was “+”.

Take `CC(=O)N[C@H]1[C@H]([C@H](O)[C@H](O)CO)O[C@@](O[C@H]2[C@@H](O)[C@@H](CO)O[C@@H](O[C@H]3[C@H](O[C@@H]4O[C@@H](C)[C@@H](O)[C@@H](O)[C@@H]4O)[C@@H](NC(C)=O)C(O)O[C@@H]3CO)[C@@H]2O)(C(=O)O)C[C@@H]1O` (stereo partly drawn) [3′-sialyl Lewis X, Neu5Ac-α-2-3-Gal-β-1-4-[Fuc-a1-3]-GlcNAc]: the “Activity, RgNanH” value with RgNanH [2] was “+”. In series [3], the “Activity, AkmNan0625 and AkmNan1835” value was “+”.

As to “Neu5Ac-α-2-6-Gal-β-1-4-GlcNAc [6′-α-sialyl-N-acetyllactosamine]”, the “Activity, AkmNan0625 and AkmNan1835” value in series [3] is “+”.

Take `CC(=O)N[C@H]1[C@H]([C@H](O)[C@H](O)CO)O[C@@](Oc2ccc([N+](=O)[O-])cc2)(C(=O)O)C[C@@H]1O` [PNP-Neu5Ac, 2-O-(p-Nitrophenyl)-α-D-N-acetylneuraminic acid]: the KM result in series [4] (setting [8]) is listed as “high KM”.

For orientation: Km means the substrate concentration at which the rate is half of its maximum. Broadly, the kcat is the number of substrate molecules converted per active site and unit of time at saturation. For `CC(=O)N[C@H]1[C@H]([C@H](O)[C@H](O)CO)O[C@@](Oc2ccc3c(C)cc(=O)oc3c2)(C(=O)O)C[C@@H]1O` [4MU-Neu5Ac, 2′-(4-Methylumbelliferyl)-α-D-N-acetylneuraminic acid], in the series on RgNanH [5], the Michaelis constant (Km) amounted to 590 µM, the turnover number (kcat) came to 6210 min⁻¹ and the Ki was 2370 µM.

For `CC(=O)N[C@H]1[C@H]([C@H](O)[C@H](O)CO)OC(OC[C@H]2OC(O)[C@H](O)[C@@H](O)[C@H]2O)(C(=O)O)C[C@@H]1O` (stereo partly drawn) [6′ sialylgalactose, Neu5Ac-α-2-6-Gal], in series [3], the “Activity, AkmNan0625 and AkmNan1835” value is reported as “+”.

What is called Vmax is the top rate of the reaction or transport when substrate is in excess. For the molecule `CC(=O)N[C@H]1[C@H]([C@H](O)[C@H](O)CO)O[C@@](O[C@H]2[C@@H](O)[C@@H](CO)O[C@@H](O[C@H]3[C@H](O)[C@@H](O)C(O)O[C@@H]3CO)[C@@H]2O)(C(=O)O)C[C@@H]1O` (stereo partly drawn) [3′SL, Neu5Ac-α-2-3-Gal-β-1-4-Glc], the “Activity, RgNanH” value with RgNanH [2] is recorded as “+”. Also, in series [3], the “Activity of AkmNan0625 and AkmNan1835 on substrate (in words)” value is recorded as “active”; the “Activity, AkmNan0625 and AkmNan1835” value was “+”. Moreover, in the series with RgNanH [5], the KM result is “below detection limit”; the Km is under 100 µM; the maximal velocity (Vmax) was found to be 0.0566 ± 0.0057 µM/min; the catalytic constant (kcat) was 25.7 min⁻¹ and 25.70 min⁻¹. On RgNanH [5], the Ki was determined as 760 µM. In series [4] (setting [8]), the KM result is on record as “below detection limit” and the Km was under 100 µM. In series [4] (** calculated using estimated value), the kcat/KM is >>2.57 × 10^2** min^−1 · mM^−1.

Turning to `CC(=O)NC1C(O)CC(Oc2ccc([N+](=O)[O-])cc2)(C(=O)O)OC1C(O)C(O)CO` [PNP-Neu5Ac, 2-O-(p-Nitrophenyl)-α-D-N-acetylneuraminic acid], in the series on RgNanH [5], the KM entry is “high”, the Michaelis constant (Km) is over 25000 µM and the kcat is <152** min^−1.

Turning to `CC(=O)N[C@H]1[C@H]([C@H](O)[C@H](O)CO)O[C@@](O[C@H]2[C@@H](O)[C@@H](CO)O[C@@H](O[C@H]3[C@H](O[C@@H]4O[C@@H](C)[C@@H](O)[C@@H](O)[C@@H]4O)[C@@H](O)C(O)O[C@@H]3CO)[C@@H]2O)(C(=O)O)C[C@@H]1O` (stereo partly drawn) [3′ sialyl-3-fucosyllactose, Neu5Ac-α-2-3-Gal-β1-4-[Fuc-α-1-3]-Glc], in the series on RgNanH [2], the “Activity, RgNanH” value was “+”. In addition, in series [3], the “Activity, AkmNan0625 and AkmNan1835” value is “+”.

By IC50 is commonly meant the concentration needed to halve the response being measured. As to `CC(=O)NC1C(O)C=C(C(=O)O)OC1C(O)C(O)CO` [Neu5Ac2en, 2-deoxy-2,3-didehydro-D-N-acetylneuraminic acid], the IC50 was found to be 1410 µM on RgNanH [1] (IC50, Table 2, substrate 4MU-Neu5Ac 0.51 mM, RgNanH 1.00 nM) and 1400 µM at RgNanH [1] (IC50, substrate 4MU-Neu5Ac).

At RgNanH [1] (substrate 4MU-Neu5Ac), `CC(=O)N[C@H]1[C@H]([C@H](O)[C@H](O)CO)OC(C(=O)O)=C[C@@H]1N=C(N)N` [Zanamivir, 4-guanidino-Neu5Ac2en] came in with a half-maximal inhibitory concentration (IC50) of 11900 µM.

Molecule `CC(=O)N[C@H]1NC[C@H](C(=O)O)[C@H](O)[C@@H]1O` [Siastatin B] registered an IC50 against RgNanH [1] (Table 2, substrate 4MU-Neu5Ac 0.51 mM, RgNanH 1.00 nM) of 4.87 µM.

Regarding “Neu5Ac-α-2-3-Gal-β-1-4-GlcNAc [3′-α-sialyl-N-acetyllactosamine]”, in the series with RgNanH [2], the “Activity, RgNanH” value is given as “+”. The “Activity, AkmNan0625 and AkmNan1835” value in series [3] was “+”.

Regarding asialo-fetuin, the “Activity of RgNanH against glycoprotein (2,7-anhydro-Neu5Ac peaks by 1H NMR)” value at RgNanH [6] is reported as “no change”.

B1: Ruminococcus gnavus ATCC 29149 sialidase RgNanH (intramolecular trans-sialidase, IT-sialidase), wild type, full length excluding signal sequence residues 1-25, … (protein)
chain: T1 sequence (A7B557 26-723)
As usually defined, the kcat/Km is the turnover number divided by the Michaelis constant. On to B1, for which, in series [7], the Km is 590 ± 170 µM, the maximal velocity (Vmax) was 1.37 µM/min, the turnover number (kcat) was 104 s⁻¹ and the kcat/Km is 175000 M⁻¹ s⁻¹.
